Twelve compounds from ChEMBL document CHEMBL3734659, “Identification of tris-(phenylalkyl)amines as new selective h5-HT2Breceptor antagonists” (Medchemcomm, 2015) can be followed below.

Calls of active or inactive are those of the source. The rule behind the calls is not given here.

The target of assay [1] is T1, 5-hydroxytryptamine receptor 2A (Homo sapiens, UniProt P28223). Briefly: Displacement of [3H]ketanserin from human recombinant 5-HT2A receptor expressed in HEKT cell membrane after 90 mins by scintillation counting method. It is filed as cell-based.
T1 sequence (P28223 whole entry): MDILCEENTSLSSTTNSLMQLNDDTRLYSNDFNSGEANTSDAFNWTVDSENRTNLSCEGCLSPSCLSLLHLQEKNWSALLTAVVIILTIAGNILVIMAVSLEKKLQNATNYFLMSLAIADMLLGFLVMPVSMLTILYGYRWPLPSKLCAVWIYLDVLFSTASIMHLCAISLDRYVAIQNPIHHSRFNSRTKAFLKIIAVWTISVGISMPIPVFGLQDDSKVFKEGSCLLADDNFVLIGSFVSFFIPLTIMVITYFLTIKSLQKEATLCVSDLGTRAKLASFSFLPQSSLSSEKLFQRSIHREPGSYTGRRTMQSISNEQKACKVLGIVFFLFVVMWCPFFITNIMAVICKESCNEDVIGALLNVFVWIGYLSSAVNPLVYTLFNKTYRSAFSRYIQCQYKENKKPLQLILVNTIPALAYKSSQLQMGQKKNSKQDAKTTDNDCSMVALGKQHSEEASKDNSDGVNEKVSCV
Assay [2] addresses T2, 5-hydroxytryptamine receptor 2B (Homo sapiens, UniProt P41595). Briefly: Displacement of [3H]LSD from human recombinant 5-HT2B receptor stably expressed in HEK cell membrane after 90 mins by scintillation counting method. It is filed as cell membranes, HEK293.
Assay [3] addresses T3, 5-hydroxytryptamine receptor 2C (Homo sapiens, UniProt P28335).
T3 sequence (P28335 whole entry): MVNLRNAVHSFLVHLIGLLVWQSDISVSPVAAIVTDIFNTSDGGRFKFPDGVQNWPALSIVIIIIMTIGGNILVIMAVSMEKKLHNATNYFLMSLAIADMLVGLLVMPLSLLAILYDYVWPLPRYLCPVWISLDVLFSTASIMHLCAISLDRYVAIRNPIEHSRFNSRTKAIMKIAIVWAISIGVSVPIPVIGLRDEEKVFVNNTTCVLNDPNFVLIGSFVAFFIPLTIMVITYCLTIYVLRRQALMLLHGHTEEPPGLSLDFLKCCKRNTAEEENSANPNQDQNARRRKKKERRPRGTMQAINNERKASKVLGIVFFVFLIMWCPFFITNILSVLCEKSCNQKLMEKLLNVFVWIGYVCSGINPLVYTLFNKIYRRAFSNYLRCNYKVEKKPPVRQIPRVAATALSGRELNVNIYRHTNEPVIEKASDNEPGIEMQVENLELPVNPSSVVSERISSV
Description: Displacement of [3H]mesulergine from human recombinant 5-HT2C receptor expressed in Flp-IN HEK cell membrane after 90 mins by scintillation counting method. The format is cell membranes, HEK293.

Assay [4] deals with T4, 5-hydroxytryptamine receptor 2C (Homo sapiens) (UniProt P28335).
T4 sequence (whole entry): T3 sequence (P28335 whole entry)
Description: Displacement of [3H]mesulergine from human recombinant 5-HT2C receptor expressed in Flp-IN HEK cell membrane at 10 uM after 90 mins by scintillation counting method. It is filed as cell membranes. The note with it: HEK293.

The subject of assay [5] is HEK293. Briefly: Selectivity ratio of Ki for human recombinant 5-HT2A receptor expressed in HEKT cell membrane to Ki for human recombinant 5-HT2B receptor stably expressed in HEK cells. The format is cell-based.
Assay [6] has as its system HEK293. Description: Selectivity ratio of Ki for human recombinant 5-HT2C receptor to Ki for human recombinant 5-HT2B receptor stably expressed in HEK cell membrane. It is filed as cell-based.
The target of assay [7] is T2, 5-hydroxytryptamine receptor 2B. Description: Antagonist activity at human recombinant 5-HT2B receptor expressed in Flp-In HEK cells in the presence of agonist preincubated for 10 mins by FLIPR based calcium mobilization assay. The format is functional, cell-based, HEK293.
Assay [8] has as its target T1, 5-hydroxytryptamine receptor 2A. Briefly: Displacement of [3H]ketanserin from human recombinant 5-HT2A receptor expressed in HEKT cell membrane at 10 uM after 90 mins by scintillation counting method. The format is cell membranes.
The target of assay [9] is T2, 5-hydroxytryptamine receptor 2B. Description: Displacement of [3H]LSD from human recombinant 5-HT2B receptor stably expressed in HEK cell membrane at 10 uM after 90 mins by scintillation counting method. It is filed as cell membranes. The conditions noted are these: HEK293.
Assay [10] shares this target. Briefly: Agonist activity at human recombinant 5-HT2B receptor expressed in Flp-In HEK cells preincubated for 10 mins by FLIPR based calcium mobilization assay. It is filed as functional, cell-based. The conditions noted are these: HEK293.
For assay [11] the target is unchanged. Briefly: Antagonist activity at human recombinant 5-HT2B receptor expressed in Flp-In HEK cells at 10 uM in the presence of agonist preincubated for 10 mins by FLIPR based calcium mobilization assay. The format is functional, cell-based. The note with it: HEK293.

T2 sequence (P41595 whole entry): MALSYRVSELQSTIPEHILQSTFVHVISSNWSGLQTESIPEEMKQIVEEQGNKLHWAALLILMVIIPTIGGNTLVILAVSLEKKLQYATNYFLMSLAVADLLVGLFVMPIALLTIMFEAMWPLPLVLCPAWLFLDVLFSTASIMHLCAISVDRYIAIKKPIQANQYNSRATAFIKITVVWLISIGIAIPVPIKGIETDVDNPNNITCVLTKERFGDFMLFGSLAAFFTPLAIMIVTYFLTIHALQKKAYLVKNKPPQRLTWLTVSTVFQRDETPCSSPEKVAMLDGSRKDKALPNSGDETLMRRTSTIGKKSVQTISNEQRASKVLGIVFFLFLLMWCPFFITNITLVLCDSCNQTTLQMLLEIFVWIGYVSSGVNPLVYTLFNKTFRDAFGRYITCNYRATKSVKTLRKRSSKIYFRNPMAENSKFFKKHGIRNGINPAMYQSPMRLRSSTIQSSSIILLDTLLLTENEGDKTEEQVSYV

For `COc1cccc(CCCN(CCc2ccc(OC)c(OC)c2)CCc2ccc3c(c2)OCO3)c1`, the Ki in [1] came to 200 nM; in assay [2], 4.6 nM; in assay [3] (read-out: Ki), 108 nM. Moreover, the inhibition in [4], in assay [8] and in assay [9] was over 50% in each case. For the same compound, the Ratio Ki turned out to be 43 with HEK293 [5] and 24 in the assay on HEK293 [6]. Also, in assay [7], the IC50 is 1.26 µM. Besides, the outcome in assay [10] was inactive.

As to `COc1ccc(CCCN(CCc2ccc(OC)c(OC)c2)CCc2ccc3c(c2)OCO3)cc1`, the Ki in assay [1] was 267 nM; in [2], 6.8 nM; in assay [3] (read-out: Ki), 206 nM. Besides, the inhibition in [4], in assay [8] and in [9] was over 50% throughout. For the same compound, the Ratio Ki in the assay on HEK293 [5] worked out at 39; in the assay on HEK293 [6], 30. In [7], the IC50 was 3.98 µM. Besides, in assay [10], the outcome was inactive.

For `COc1ccc(CCN(CCc2ccc3c(c2)OCO3)Cc2ccccc2)cc1OC`, the Ki in [1] amounted to 3530 nM; in assay [2], 59 nM; in assay [3] (read-out: Ki), 1090 nM. The inhibition in assay [4], in assay [8] and in assay [9] was over 50% in each case. Moreover, the Ratio Ki in the assay on HEK293 [5] amounted to 60; in the assay on HEK293 [6], 19. Moreover, the outcome in assay [10] was inactive.

On to `COc1ccc(CCN(CCCc2cc(OC)c(OC)c(OC)c2)Cc2ccc3c(c2)OCO3)cc1OC`, for which the values for the Ki in assay [1], in assay [2] and in assay [3] (hek293) were 2230 nM, 231 nM and “Not Active”, respectively. In [7], the IC50 is 12.6 µM. The inhibition in assay [8] and in [9] was over 50% throughout. Also, in [10], the outcome was inactive.

Turning to `COc1ccc(CCN(CCCc2cc(OC)c(OC)c(OC)c2)CCc2ccc3c(c2)OCO3)cc1OC`, the values for the Ki in assay [1], in assay [2] and in [3] (read-out: Ki) were 146 nM, 4.1 nM and 194 nM, respectively. Further, the inhibition in assay [4], in [8] and in [9] was over 50% each time. In addition, the Ratio Ki turned out to be 36 in the assay on HEK293 [5] and 47 in the assay with HEK293 [6]. Also, the half-inhibitory concentration (IC50) in assay [7] is 1.26 µM. Also, the outcome in assay [10] was inactive.

With `Cn1ccc2cc3c(cc21)CCN3C(=O)Nc1cccnc1`, the inhibitory constant (Ki) in assay [2] was 21 nM.

In the case of `COc1ccc(OC)c(CCCN(CCc2ccc(OC)c(OC)c2)CCc2ccc3c(c2)OCO3)c1`, the results for the inhibition constant (Ki) in [1], in assay [2] and in assay [3] (read-out: Ki) were 919 nM, 36 nM and 273 nM, respectively. Moreover, the inhibition in [4], in [8] and in assay [9] was over 50% throughout. Further, the Ratio Ki worked out at 26 in the assay with HEK293 [5] and 8 in the assay on HEK293 [6]. Moreover, the IC50 in [7] is 7.94 µM. For the same compound, in [10], the outcome was inactive.

`Cc1nc2sccn2c(=O)c1CCN1CCC(=C(c2ccc(F)cc2)c2ccc(F)cc2)CC1` [RITANSERIN]: in [3] (read-out: Ki), the Ki was 1.8 nM.

As for `COc1cccc(CCCN(CCc2ccc(OC)c(OC)c2)Cc2ccc3c(c2)OCO3)c1`, the Ki in assay [1] was 1510 nM; in [2] it was 59 nM; in [3] (read-out: Ki), 103 nM. Moreover, the inhibition in assay [4], in [8] and in [9] was over 50% in each case. The Ratio Ki in the assay with HEK293 [5] is 26; with HEK293 [6] it was 2. In addition, the outcome in [11] and in [10] was inactive.

Turning to `COc1ccc(CCN(CC/C=C\c2ccccc2)Cc2ccc3c(c2)OCO3)cc1OC`, the Ki was 226 nM in [1], 21 nM in [2] and 241 nM in [3] (read-out: Ki). Further, the inhibition in assay [4], in assay [8] and in assay [9] was over 50% each time. Besides, the values for the Ratio Ki in the assay on HEK293 [5] and in the assay on HEK293 [6] were 11 and 12, respectively. For the same compound, the IC50 in assay [7] was 6.31 µM. The outcome in assay [10] was inactive.

For the compound `COc1ccccc1CCCN(CCc1ccc(OC)c(OC)c1)CCc1ccc2c(c1)OCO2`, the Ki in assay [1] amounted to 140 nM; in [2], 5.8 nM; in assay [3] (read-out: Ki), 123 nM. Moreover, the inhibition in assay [4], in assay [8] and in assay [9] was over 50% each time. For the same compound, the Ratio Ki in the assay on HEK293 [5] is 24; in the assay on HEK293 [6] it was 21. Further, the concentration for half-maximal inhibition (IC50) in assay [7] is 10 µM. The outcome in assay [10] was inactive.

Consider `COc1ccc(CCN(CCc2ccccc2)CCc2ccc3c(c2)OCO3)cc1OC`, for which the Ki in assay [1] amounted to 1470 nM; in assay [2], 17 nM; in [3] (read-out: Ki) it was 690 nM. Moreover, the inhibition in assay [4], in assay [8] and in assay [9] was over 50% in each case. In addition, the Ratio Ki was determined as 87 in the assay on HEK293 [5] and 41 in the assay on HEK293 [6]. In addition, the IC50 in assay [7] was 10 µM. For the same compound, the outcome in assay [10] was inactive.
